# Source: patent US10375962B2, “Heterocycle derivatives as pesticides” (BAYER CROPSCIENCE AKTIENGESELLSCHAFT, priority 2016, dated 2019)
# Assays:
# [1] = log P by HPLC on a reversed-phase column (C 18), EEC Directive 79/831 Annex V.A8; assay type: physicochemical
# Description: Called log P (HCOOH) in the table.
# Called log P (neutral) in the table.
# [2] = tested on: caterpillars of the armyworm (Spodoptera frugiperda); assay: Spodoptera frugiperda - spray test; assay type: in vivo; conditions: maize leaf discs, after 7 days
# Description: Solvent: 78.0 parts by weight of acetone • • 1.5 parts by weight of dimethylformamide Emulsifier: alkylaryl polyglycol ether […] To produce further test concentrations, the formulation is diluted with emulsifier-containing water. Leaf discs of maize (Zea mays) are sprayed with an active compound preparation of the desired concentration and, after drying, populated with caterpillars of the armyworm (Spodoptera frugiperda).
# [3] = tested on: L1 larvae of the Australian sheep blowfly (Lucilia cuprina); assay: Lucilia cuprina test; assay type: in vivo; conditions: application rate 100 ppm; after 2 days
# Description: Solvent: dimethyl sulphoxide
# To produce a suitable active compound formulation, 10 mg of active compound are mixed with 0.5 ml of dimethyl sulphoxide, and the concentrate is diluted with water to the desired concentration.
# About 20 L1 larvae of the Australian sheep blowfly (Lucilia cuprina) are transferred into a test vessel containing minced horsemeat and the active compound formulation of the desired concentration.
# After 2 days, the kill in % is determined. 100% means that all the larvae have been killed; 0% means that no larvae have been killed.
# [4] = tested on: green peach aphid (Myzus persicae); assay: Myzus persicae - spray test (Chinese cabbage leaf discs); assay type: in vivo; conditions: after 5 days
# Description: Solvent: 78 parts by weight of acetone • • 1.5 parts by weight of dimethylformamide Emulsifier: alkylaryl polyglycol ether
# (§1) To produce a suitable active compound formulation, 1 part by weight of active compound is dissolved with the stated parts by weight of solvent and made up with water containing an emulsifier concentration of 1000 ppm until the desired concentration is attained. To produce further test concentrations, the formulation is diluted with emulsifier-containing water.
# Discs of Chinese cabbage leaves (Brassica pekinensis) infested by all stages of the green peach aphid (Myzus persicae) are sprayed with an active compound formulation of the desired concentration.
# After 5 days, the efficacy in % is determined. 100% means that all the aphids have been killed and 0% means that none of the aphids have been killed.
# [5] = tested on: larvae of the mustard beetle (Phaedon cochleariae); assay: Phaedon cochleariae - spray test; assay type: in vivo; conditions: after 7 days
# Description: Solvent: 78.0 parts by weight of acetone • • 1.5 parts by weight of dimethylformamide
# Emulsifier: alkylaryl polyglycol ether
# as §1
# Discs of Chinese cabbage leaves (Brassica pekinensis) are sprayed with an active compound formulation of the desired concentration and, after drying, populated with larvae of the mustard beetle (Phaedon cochleariae).
# After 7 days, the efficacy in % is determined. 100% means that all the beetle larvae have been killed and 0% means that none of the beetle larvae have been killed.
# [6] = acidic range, pH 2.7, 0.1% aqueous formic acid/acetonitrile, 55° C.
# [7] = neutral range, pH 7.8, 0.001 molar aqueous ammonium hydrogencarbonate/acetonitrile, 55° C.
Structure (SMILES),LOGP_HCOOH (log P (HCOOH)) ([1]; pH 2.7),LOGP_NEUTRAL (log P (neutral)) ([1]; pH 7.8),efficacy ([2]; application rate 100 g/ha) [%],efficacy ([5]; application rate 100 g/ha) [%],further results
CCS(=O)(=O)c1ccc(-n2ccc3cccnc32)nc1-c1nc2cc(C(F)(F)F)ncc2n1C [Example I-29],3.76,3.74,100,,efficacy ([2]; application rate 500 g/ha): 100%; efficacy (kill) [3]: 100%
CCS(=O)(=O)c1ccc(-n2cnc3ccc(OC)cc32)nc1-c1nc2cc(C(F)(F)F)ncc2n1C [Example I-30],2.69,2.67,,,
CCS(=O)(=O)c1ccc(-n2cnc3ccc(Cl)nc32)nc1-c1nc2cc(C(F)(F)F)ncc2n1C [Example I-33],3.25,3.20,100,100,efficacy ([4]; application rate 500 g/ha): 90%; efficacy ([5]; application rate 500 g/ha): 100%; efficacy ([2]; application rate 500 g/ha): 100%
CCS(=O)(=O)c1ccc(-n2nnc3ccc(Cl)nc32)nc1-c1nc2cc(C(F)(F)F)ncc2n1C [Example I-37],2.96,3.00,,,efficacy ([4]; application rate 100 g/ha): 90%
CCS(=O)(=O)c1ccc(N2Cc3cc(OC)ccc3C2=O)nc1-c1nc2cc(C(F)(F)F)ncc2n1C [Example I-38],3.29,3.32,100,,
CCS(=O)(=O)c1ccc(N2C(=O)c3ccccc3C2=O)nc1-c1nc2cc(C(F)(F)F)ncc2n1C [Example I-40],2.92,2.96,,100,efficacy ([5]; application rate 500 g/ha): 100%
CCS(=O)(=O)c1ccc(-n2c(=O)oc3ccccc32)nc1-c1nc2cc(C(F)(F)F)ncc2n1C [Example I-41],,,,,"LOGP_HCOOH (log P (HCOOH)) [1, 6]: 3.25; LOGP_NEUTRAL (log P (neutral)) [1, 7]: 3.26"
CCS(=O)(=O)c1ccc(-n2nc3ccc(Cl)nn3c2=O)nc1-c1nc2cc(C(F)(F)F)ncc2n1C [Example I-42],2.42,2.38,,100,
CCS(=O)(=O)c1ccc(-n2c(=O)n(C)c3ccccc32)nc1-c1nc2cc(C(F)(F)F)ncc2n1C [Example I-44],3.10,3.06,,,
CCS(=O)(=O)c1ccc(-n2c(=O)[nH]c3ccccc32)nc1-c1nc2cc(C(F)(F)F)ncc2n1C [Example I-45],2.59,2.62,,,
CCS(=O)(=O)c1ccc(N2Cc3cccnc3C2=O)nc1-c1nc2cc(C(F)(F)F)ncc2n1C [Example I-46],2.26,2.30,,,
CCS(=O)(=O)c1ccc(-n2c(=O)[nH]c3cc(Cl)ccc32)nc1-c1nc2cc(C(F)(F)F)ncc2n1C [Example I-47],3.05,,,,
CCS(=O)(=O)c1ccc(-n2c(=O)[nH]c3ccc(Cl)cc32)nc1-c1nc2cc(C(F)(F)F)ncc2n1C [Example I-48],2.97,,,,
CCS(=O)(=O)c1ccc(-n2nnc3ccc(Cl)cc32)nc1-c1nc2cc(C(F)(F)F)ncc2n1C [Example I-49],,,100,100,"LOGP_HCOOH (log P (HCOOH)) [1, 6]: 3.74; LOGP_NEUTRAL (log P (neutral)) [1, 7]: 3.74"
CCS(=O)(=O)c1ccc(-n2nnc3cc(Cl)ccc32)nc1-c1nc2cc(C(F)(F)F)ncc2n1C [Example I-50],,,100,100,"LOGP_HCOOH (log P (HCOOH)) [1, 6]: 3.72; LOGP_NEUTRAL (log P (neutral)) [1, 7]: 3.77"
CCS(=O)(=O)c1ccc(-n2cccc3oc(=O)nc2-3)nc1-c1nc2cc(C(F)(F)F)ncc2n1C [Example I-51],2.09,2.08,,,
